Results on 14 molecules are retold here after ChEMBL document CHEMBL5150014, “Discovery and Development of Dolastatin 10-Derived Antibody Drug Conjugate Anticancer Drugs” (J Nat Prod, 2022).

In one experiment the test system is HCT-116. Kind of experiment: Cytotoxicity against human HCT-116 cells assessed as cell growth inhibition measured after 96 hrs by resazurin dye based assay. It is filed as functional.
The test system of experiment [1] is H3396. Kind of experiment: Cytotoxicity against human H3396 cells assessed as cell growth inhibition measured after 96 hrs by resazurin dye based assay. It is filed as functional. A general note: The colour change of resazurin is a common sign of viable cells or microbes.
A further experiment deals with L1210. Nature of the experiment: Cytotoxicity against mouse L1210 cells assessed as cell growth inhibition measured after 24 hrs. It is filed as functional, cell-based. The settings on record: L1210, 24 h.
In the next experiment the test system is SK-OV-3. Kind of experiment: Cytotoxicity against human SK-OV-3 cells assessed as reduction in cell viability incubated for 96 hrs by PrestoBlue cell viability assay. To be noted: SK-OV-3, 96 h. It is filed as functional, cell-based.
The next experiment concerns HeLa S3. Kind of experiment: Cytotoxicity against human HeLa S3 cells assessed as reduction in cell viability incubated for 4 days by propidium iodide staining based fluorescence analysis. It is filed as functional. The settings on record: HeLa S3, 96 h.
The target of another experiment is Tubulin. Kind of experiment: Inhibition of tubulin (unknown origin) polymerization assessed as reduction in microtubule formation measured for 20 mins by spectrophotometric analysis. It is filed as protein-complex assay, Homo sapiens.
The test system of another experiment is MOLM-13. Kind of experiment: Cytotoxicity against human MOLM-13 cells assessed as cell growth inhibition. It is filed as functional, cell-based.
Experiment [2] relates to H3396. Kind of experiment: Cytotoxicity against human H3396 cells assessed as cell growth inhibition. It is filed as functional, cell-based.
The next experiment relates to KARPAS-299. Nature of the experiment: Cytotoxicity against human KARPAS-299 cells assessed as reduction in cell viability incubated for 5 days by Presto blue dye based assay. It is filed as functional. The settings on record: KARPAS-299, 120 h.

SMILES strings stand for the structures. Starred links: 1 amine or outer side, 2 acyl side, 3 side chain; linkers in the order of their positions; H or OH if unused. Non-standard residues stand in square brackets, D forms with d. Residues, ends and D or L forms follow the SMILES beside them. *: point of attachment. Dolaproine(4S-N3) = CO[C@H]([C@@H](C)C(=O)[*:2])[C@@H]1C[C@H](N=[N+]=[N-])CN1[*:1]; Dolaproine = CO[C@@H]([C@@H]1CCCN1)[C@@H](C)C(=O)O; Abu(3S-N3) = C[C@H](N=[N+]=[N-])[C@H](N)C(=O)O; X6 = C/C(=N\OCC(=O)*)c1ccc(C[C@H](N)C(=O)O)cc1; Dil = CC[C@H](C)[C@H](NC)[C@@H](CC(=O)O)OC; NMeV = CN[C@H](C(=O)O)C(C)C Some results are limits rather than exact numbers.

With `CC[C@H](C)[C@@H]([C@@H](CC(=O)N1CCC[C@H]1[C@H](OC)[C@@H](C)C(=O)N[C@@H](Cc1ccccc1)c1nn[nH]n1)OC)N(C)C(=O)[C@@H](NC(=O)[C@H](C(C)C)N(C)C)C(C)C`, the results for the GI50 in the experiment on HCT-116 and in the experiment with H3396 [1] were 6 nM and 0.09 nM, respectively.
For `CCOP(=O)(OCC)[C@H](Cc1ccccc1)NC(=O)[C@H](C)[C@@H](OC)[C@@H]1CCCN1C(=O)C[C@@H](OC)[C@H]([C@@H](C)CC)N(C)C(=O)[C@@H](NC(=O)[C@H](C(C)C)N(C)C)C(C)C`, in that order: 6 nM and 0.09 nM.
As to `CC[C@H](C)[C@@H]([C@@H](CC(=O)N1CCC[C@H]1/C=C(\C)C(=O)N[C@@H](Cc1ccccc1)c1nccs1)OC)N(C)C(=O)[C@@H](NC(=O)[C@H](C(C)C)N(C)C)C(C)C`, in the experiment with L1210, the IC50 – broadly, the concentration at which inhibition is half-maximal – was more than 10000 nM.
For `CC[C@H](C)[C@@H]([C@@H](CC(=O)N1CCC[C@H]1[C@H](OC)[C@@H](C)C(=O)N[C@@H](Cc1ccccc1)c1nccs1)OC)N(C)C(=O)[C@@H](NC(=O)[C@H](C(C)C)N(C)CC(O)C(O)C(O)C(O)CN=[N+]=[N-])C(C)C` (stereo partly specified), the IC50 in the experiment with SK-OV-3 is less than 1 nM.
On to `CC[C@H](C)[C@@H]([C@@H](CC(=O)N1CCC[C@H]1[C@H](OC)[C@@H](C)C(=O)OC[C@@H](O)Cc1ccccc1)OC)N(C)C(=O)[C@@H](NC(=O)[C@H](C(C)C)N(C)C)[C@@H](C)CC`, for which the IC50 in the experiment with HeLa S3 amounted to 2.9 nM.
On to `C#COCC(O)C(O)C(O)C(O)CN(C)[C@H](C(=O)N[C@H](C(=O)N(C)[C@@H]([C@@H](C)CC)[C@@H](CC(=O)N1CCC[C@H]1[C@H](OC)[C@@H](C)C(=O)N[C@@H](Cc1ccccc1)c1nccs1)OC)C(C)C)C(C)C` (stereo partly specified), for which the IC50 in the experiment with SK-OV-3 is 1 nM.
As to `CC[C@H](C)[C@@H]([C@@H](CC(=O)N1CCC[C@H]1[C@H](OC)[C@@H](C)C(=O)O[C@H](CO)Cc1ccccc1)OC)N(C)C(=O)[C@@H](NC(=O)[C@H](C(C)C)N(C)C)[C@@H](C)CC`, the IC50 in the experiment with HeLa S3 came out at 2.1 nM.
On to `CC[C@H](C)[C@@H]([C@@H](CC(=O)OC(C)(C)C)OC)N(C)C(=O)[C@@H](NC(=O)[C@H](C(C)C)N(C)C)C(C)C`, for which, on Tubulin, the IC50 stood at 4.2 nM.
In the case of `CC[C@H](C)[C@@H]([C@@H](CC(=O)N1CCC[C@H]1[C@@H](OC)[C@@H](C)C(=O)N[C@@H](Cc1ccccc1)c1nccs1)OC)N(C)C(=O)[C@@H](NC(=O)[C@H](C(C)C)N(C)C)C(C)C`, in the experiment on L1210, the IC50 was more than 10000 nM.
Consider `CC[C@H](C)[C@@H]([C@@H](CC(=O)N1C[C@@H](N=[N+]=[N-])C[C@H]1[C@H](OC)[C@@H](C)C(=O)N[C@@H](Cc1ccccc1)C(=O)OC)OC)N(C)C(=O)[C@@H](NC(=O)[C@@H](NC)C(C)C)C(C)C` (H-[NMeV]V[Dil][Dolaproine(4S-N3)]F-OMe), for which the GI50 (usually the concentration at which growth is held to half of that of the control) with MOLM-13 is 0.224 nM.
With `CC[C@H](C)[C@@H]([C@@H](CC(=O)N1CCC[C@H]1[C@H](OC)[C@@H](C)C(=O)N[C@@H](Cc1ccccc1)C(=O)OC)OC)N(C)C(=O)[C@@H](NC(=O)[C@@H](NC)C(C)C)C(C)C` (H-[NMeV]V[Dil][Dolaproine]F-OMe), in the experiment with H3396 [2], the IC50 is less than 0.001 nM.
Consider `CC[C@H](C)[C@@H]([C@@H](CC(=O)N1C[C@@H](N=[N+]=[N-])C[C@H]1[C@H](OC)[C@@H](C)C(=O)N[C@@H](Cc1ccccc1)C(=O)OC)OC)N(C)C(=O)[C@@H](NC(=O)[C@@H](NC)C(C)C)[C@H](C)N=[N+]=[N-]` (H-[NMeV][Abu(3S-N3)][Dil][Dolaproine(4S-N3)]F-OMe), for which the concentration for 50% growth inhibition (GI50) in the experiment with MOLM-13 was determined as 0.279 nM.
`CC[C@H](C)[C@@H]([C@@H](CC(=O)N1CCC[C@H]1[C@H](OC)[C@@H](C)C(=O)N[C@@H](Cc1ccccc1)C(N)=O)OC)N(C)C(=O)[C@@H](NC(=O)[C@@H](NC)C(C)C)[C@H](C)N=[N+]=[N-]` (H-[NMeV][Abu(3S-N3)][Dil][Dolaproine]F-NH2): the IC50 in the experiment on KARPAS-299 was 0.6 nM.
Consider `CC[C@H](C)[C@@H]([C@@H](CC(=O)N1CCC[C@H]1[C@H](OC)[C@@H](C)C(=O)N[C@@H](Cc1ccccc1)C(=O)O)OC)N(C)C(=O)[C@@H](NC(=O)[C@H](C(C)C)N(C)C(=O)CO/N=C(\C)c1ccc(C[C@H](N)C(=O)O)cc1)[C@H](C)N=[N+]=[N-]` (X6-[NMeV][Abu(3S-N3)][Dil][Dolaproine]F-OH), for which the IC50 with KARPAS-299 came out at 217 nM.
